Measurements from US11643438B2, “Antimicrobial peptides and methods of use” (priority 2018, dated 2023).
Converted amounts (≈) assume the structure as drawn. Values belong to the compound of their own block, whether it stands above or below them. *1 amine or outer side, *2 acyl side, *3 side chain or, on linkers, in order; H or OH if unused. Where a SMILES comes first, the peptide text is derived from it. [ ]: non-standard residue; d: D form. X2 = CC[C@H](C)C[C@H](C)C[C@H](C)C[C@H](N[*:1])C(=O)[*:2]; X1 = CC[C@@H](C)[C@@H](O[*:1])C(=O)[*:2]; NMeVal(β-OH) = CN[C@H](C(=O)O)C(C)(C)O; aIle = CC[C@@H](C)[C@H](N)C(=O)O; NMeV = CN[C@H](C(=O)O)C(C)C; Sar = CNCC(=O)O

How the values were obtained:
Candida albicans SC5314 = test: Antifungal MIC80/MFC assay, fungal pathogen panel
[1] = system: Aspergillus fumigatus MYA 3627; test: Antifungal MIC80/MFC assay, fungal pathogen panel; conditions: MYA3627
Candida auris 381 = test: Antifungal MIC80 assay, clinical yeast isolates
Candida glabrata 22 = test: Antifungal MIC80 assay, clinical yeast isolates
[2] = system: Cryptococcus neoformans H99; test: Antifungal MIC80/MFC assay, fungal pathogen panel
[3] = system: Candida albicans ATCC 10231; test: Antifungal MIC80/MFC assay, fungal pathogen panel; conditions: ATCC10231
Candida auris 386 = test: Antifungal MIC80 assay, clinical yeast isolates
Candida krusei 397 = test: Antifungal MIC80 assay, clinical yeast isolates
Candida albicans 14 = test: Antifungal MIC80 assay, clinical yeast isolates
[4] = system: Candida duobushaemulonii 394; test: Antifungal MIC80 assay, clinical yeast isolates
Candida albicans 5 = test: Antifungal MIC80 assay, clinical yeast isolates
[5] = system: Candida tropicalis ATCC750 (Y-12699); test: Antifungal MIC80/MFC assay, fungal pathogen panel
Candida parapsilosis 18 = test: Antifungal MIC80 assay, clinical yeast isolates
Candida albicans 3 = test: Antifungal MIC80 assay, clinical yeast isolates
Candida parapsilosis 9 = test: Antifungal MIC80 assay, clinical yeast isolates
Candida auris 382 = test: Antifungal MIC80 assay, clinical yeast isolates
Candida auris 387 = test: Antifungal MIC80 assay, clinical yeast isolates
[6] = system: Rhizopus oryzae FGSC 9543; test: Antifungal MIC80/MFC assay, fungal pathogen panel
[7] = system: Mucor circinelloides 235C7; test: Antifungal MIC80/MFC assay, fungal pathogen panel
Candida auris 388 = test: Antifungal MIC80 assay, clinical yeast isolates
[8] = system: Candida krusei ATCC 6258 (Y-7179); test: Antifungal MIC80/MFC assay, fungal pathogen panel
[9] = system: Saccharomyces cerevisiae 400; test: Antifungal MIC80 assay, clinical yeast isolates
Candida glabrata 11 = test: Antifungal MIC80 assay, clinical yeast isolates
[10] = system: Candida parapsilosis ATCC 22019 (Y-12969); test: Antifungal MIC80/MFC assay, fungal pathogen panel
Candida lusitaniae 398 = test: Antifungal MIC80 assay, clinical yeast isolates
[11] = system: Candida duobushaemulonii 391; test: Antifungal MIC80 assay, clinical yeast isolates
Candida auris 385 = test: Antifungal MIC80 assay, clinical yeast isolates
Candida auris 383 = test: Antifungal MIC80 assay, clinical yeast isolates
Candida albicans 8 = test: Antifungal MIC80 assay, clinical yeast isolates
Candida glabrata 17 = test: Antifungal MIC80 assay, clinical yeast isolates
[12] = system: Saccharomyces cerevisiae 399; test: Antifungal MIC80 assay, clinical yeast isolates
Candida auris 389 = test: Antifungal MIC80 assay, clinical yeast isolates
[13] = system: Paecilomyces lilacinus 165E10; test: Antifungal MIC80/MFC assay, fungal pathogen panel
Fusarium tricinctum = test: MIC/MFC against phytopathogenic (endophytic) fungi
Fusarium oxysporum = test: MIC/MFC against phytopathogenic (endophytic) fungi
[14] = Candida tropicalis ATCC750 (Y-12699)
[15] = Candida krusei ATCC 6258 (Y-7179)
[16] = Candida parapsilosis ATCC 22019 (Y-12969)
[17] = Lodderomyces parapsilosis, ATCC22019
[18] = Purpureocillium lilacinum, 165E10

MIC80 (Candida albicans SC5314): 0.6 µM (≈ 0.554 µg/mL)
MIC80 [1]: 2.5 µM (≈ 2.31 µg/mL)
MIC80 (Candida auris 381; Candida auris 381, multidrug-resistant): 1.25 µM (≈ 1.16 µg/mL)
MIC80 (Candida glabrata 22; Candida glabrata 22): 0.3 µM (≈ 0.277 µg/mL)
MIC80 [2]: 1.25 µM (≈ 1.16 µg/mL)
MIC80 [3]: 0.6 µM (≈ 0.554 µg/mL)
MIC80 (Candida auris 386; Candida auris 386, multidrug-resistant): 2.5 µM (≈ 2.31 µg/mL)
MIC80 (Candida krusei 397; Candida krusei 397, multidrug-resistant): 2.5 µM (≈ 2.31 µg/mL)
MIC80 (Candida albicans 14): 1.25 µM (≈ 1.16 µg/mL)
MIC80 ([4]; Candida duobushaemulonii 394, multidrug-resistant): 5 µM (≈ 4.62 µg/mL)
MIC80 (Candida albicans 5): 0.6 µM (≈ 0.554 µg/mL)
MIC80 [5, 14]: 1.25 µM (≈ 1.16 µg/mL)
MIC80 (Candida parapsilosis 18; Candida parapsilosis 18): 1.25 µM (≈ 1.16 µg/mL)
MIC80 (Candida albicans 3): 0.6 µM (≈ 0.554 µg/mL)
MIC80 (Candida parapsilosis 9; Candida parapsilosis 9): 2.5 µM (≈ 2.31 µg/mL)
MIC80 (Candida auris 382; Candida auris 382, multidrug-resistant): 1.25 µM (≈ 1.16 µg/mL)
MIC80 (Candida auris 387; Candida auris 387, multidrug-resistant): 2.5 µM (≈ 2.31 µg/mL)
MIC80 ([6]; Rhizopus oryzae FGSC 9543): 0.3 µM (≈ 0.277 µg/mL)
MIC80 [7]: 1.25 µM (≈ 1.16 µg/mL)
MIC80 (Candida auris 388; Candida auris 388, multidrug-resistant): 2.5 µM (≈ 2.31 µg/mL)
MIC80 [8, 15]: 2.5 µM (≈ 2.31 µg/mL)
MIC80 ([9]; Saccharomyces cerevisiae 400, multidrug-resistant): 1.25 µM (≈ 1.16 µg/mL)
MIC80 (Candida glabrata 11; Candida glabrata 11): 0.3 µM (≈ 0.277 µg/mL)
MIC80 [10, 16]: 1.25 µM (≈ 1.16 µg/mL)
MIC80 (Candida lusitaniae 398; Candida lusitaniae 398, multidrug-resistant): 0.6 µM (≈ 0.554 µg/mL)
MIC80 ([11]; Candida duobushaemulonii 391, multidrug-resistant): 5 µM (≈ 4.62 µg/mL)
MIC80 (Candida auris 385; Candida auris 385, multidrug-resistant): 2.5 µM (≈ 2.31 µg/mL)
MIC80 (Candida auris 383; Candida auris 383, multidrug-resistant): 2.5 µM (≈ 2.31 µg/mL)
MIC80 (Candida albicans 8): 0.6 µM (≈ 0.554 µg/mL)
MIC80 (Candida glabrata 17; Candida glabrata 17): 0.3 µM (≈ 0.277 µg/mL)
MIC80 ([12]; Saccharomyces cerevisiae 399, multidrug-resistant): 2.5 µM (≈ 2.31 µg/mL)
MIC80 (Candida auris 389; Candida auris 389, multidrug-resistant): 5 µM (≈ 4.62 µg/mL)
MIC80 ([13]; Paecilomyces lilacinus 165E10): >10 µM
SMILES: C[C@@H]1[C@H](O)[C@@H](C)/C=C/C=C/C=C/C=C/C=C/C=C/C=C/[C@H](O[C@@H]2O[C@H](C)[C@@H](O)[C@H](N)[C@@H]2O)C[C@@H]2O[C@](O)(C[C@@H](O)C[C@@H](O)[C@H](O)CC[C@@H](O)C[C@@H](O)CC(=O)O[C@H]1C)C[C@H](O)[C@H]2C(=O)O [AMB, amphotericin B]
MFC (Candida albicans SC5314): 2.5 µM (≈ 2.31 µg/mL)
MFC [1]: 2.5 µM (≈ 2.31 µg/mL)
MFC [2]: 2.5 µM (≈ 2.31 µg/mL)
MFC [3]: 2.5 µM (≈ 2.31 µg/mL)
MFC [5, 14]: 2.5 µM (≈ 2.31 µg/mL)
MFC ([6]; Rhizopus oryzae FGSC 9543): 0.3 µM (≈ 0.277 µg/mL)
MFC [7]: 1.25 µM (≈ 1.16 µg/mL)
MFC [8, 15]: 5 µM (≈ 4.62 µg/mL)
MFC [10, 16]: 5 µM (≈ 4.62 µg/mL)
MFC ([13]; Paecilomyces lilacinus 165E10): >10 µM

SMILES: CC[C@H](C)C[C@H](C)C[C@H](C)C[C@@H]1NC(=O)[C@H](C(C)C)N(C)C(=O)[C@@H]([C@H](C)CC)OC(=O)[C@H](C(C)(C)O)N(C)C(=O)[C@H](CC(C)C)NC(=O)[C@H](C(C)C)N(C)C(=O)[C@H]([C@H](C)CC)NC(=O)[C@@H]2CCCN2C(=O)CN(C)C1=O [Compound 1, persephacin] (cyclo(L[NMeVal(β-OH)][X1][NMeV][X2][Sar]P[aIle][NMeV]))
MFC (Candida albicans SC5314): 1.25 µM (≈ 1.34 µg/mL)
MIC80 (Candida albicans SC5314): 0.3 µM (≈ 0.323 µg/mL)
MFC [1]: 5 µM (≈ 5.38 µg/mL)
MIC80 [1]: 2.5 µM (≈ 2.69 µg/mL)
MIC80 (Candida auris 381; Candidozyma auris, 381): 2.5 µM (≈ 2.69 µg/mL)
MIC80 (Candida glabrata 22; Nakaseomyces glabratus, 22): 0.6 µM (≈ 0.645 µg/mL)
MFC [2]: 2.5 µM (≈ 2.69 µg/mL)
MIC80 [2]: 0.6 µM (≈ 0.645 µg/mL)
MFC [3]: 1.25 µM (≈ 1.34 µg/mL)
MIC80 [3]: 0.6 µM (≈ 0.645 µg/mL)
MIC80 (Candida auris 386; Candidozyma auris, 386): 2.5 µM (≈ 2.69 µg/mL)
MIC80 (Candida krusei 397; Pichia kudriavzevii, 397): 2.5 µM (≈ 2.69 µg/mL)
MIC80 (Candida albicans 14): 0.6 µM (≈ 0.645 µg/mL)
MIC80 ([4]; Candidozyma duobushaemuli, 394): 2.5 µM (≈ 2.69 µg/mL)
MIC80 (Candida albicans 5): 1.25 µM (≈ 1.34 µg/mL)
MFC ([5]; Candida tropicalis, ATCC750): 2.5 µM (≈ 2.69 µg/mL)
MIC80 ([5]; Candida tropicalis, ATCC750): 1.25 µM (≈ 1.34 µg/mL)
MIC80 (Candida parapsilosis 18; Lodderomyces parapsilosis, 18): 1.25 µM (≈ 1.34 µg/mL)
MIC80 (Candida albicans 3): 2.5 µM (≈ 2.69 µg/mL)
MIC80 (Candida parapsilosis 9; Lodderomyces parapsilosis, 9): 2.5 µM (≈ 2.69 µg/mL)
MIC80 (Candida auris 382; Candidozyma auris, 382): 2.5 µM (≈ 2.69 µg/mL)
MIC80 (Candida auris 387; Candidozyma auris, 387): 2.5 µM (≈ 2.69 µg/mL)
MFC ([6]; Rhizopus arrhizus, FGSC9543): > 10 µM
MIC80 ([6]; Rhizopus arrhizus, FGSC9543): > 10 µM
MFC (Fusarium tricinctum): 10 µM (≈ 10.8 µg/mL)
MIC (Fusarium tricinctum): 5 µM (≈ 5.38 µg/mL)
MFC [7]: > 10 µM
MIC80 [7]: > 10 µM
MFC (Fusarium oxysporum): 20 µM (≈ 21.5 µg/mL)
MIC (Fusarium oxysporum): 5 µM (≈ 5.38 µg/mL)
MIC80 (Candida auris 388; Candidozyma auris, 388): 2.5 µM (≈ 2.69 µg/mL)
MFC ([8]; Pichia kudriavzevii, ATCC6258): 2.5 µM (≈ 2.69 µg/mL)
MIC80 ([8]; Pichia kudriavzevii, ATCC6258): 1.25 µM (≈ 1.34 µg/mL)
MIC80 ([9]; Saccharomyces cerevisiae, 400): 2.5 µM (≈ 2.69 µg/mL)
MIC80 (Candida glabrata 11; Nakaseomyces glabratus, 11): 0.6 µM (≈ 0.645 µg/mL)
MFC [10, 17]: 2.5 µM (≈ 2.69 µg/mL)
MIC80 [10, 17]: 2.5 µM (≈ 2.69 µg/mL)
MIC80 (Candida lusitaniae 398; Clavispora lusitaniae, 398): 2.5 µM (≈ 2.69 µg/mL)
MIC80 ([11]; Candidozyma duobushaemuli, 391): 2.5 µM (≈ 2.69 µg/mL)
MIC80 (Candida auris 385; Candidozyma auris, 385): 2.5 µM (≈ 2.69 µg/mL)
MIC80 (Candida auris 383; Candidozyma auris, 383): 2.5 µM (≈ 2.69 µg/mL)
MIC80 (Candida albicans 8): 0.6 µM (≈ 0.645 µg/mL)
MIC80 (Candida glabrata 17; Nakaseomyces glabratus, 17): 0.15 µM (≈ 0.161 µg/mL)
MIC80 ([12]; Saccharomyces cerevisiae, 399): 2.5 µM (≈ 2.69 µg/mL)
MIC80 (Candida auris 389; Candidozyma auris, 389): 2.5 µM (≈ 2.69 µg/mL)
MFC [13, 18]: > 10 µM
MIC80 [13, 18]: 2.5 µM (≈ 2.69 µg/mL)
